The test addresses D(2) dopamine receptor (Homo sapiens, UniProt P14416).

Sequence of D(2) dopamine receptor (P14416 whole entry): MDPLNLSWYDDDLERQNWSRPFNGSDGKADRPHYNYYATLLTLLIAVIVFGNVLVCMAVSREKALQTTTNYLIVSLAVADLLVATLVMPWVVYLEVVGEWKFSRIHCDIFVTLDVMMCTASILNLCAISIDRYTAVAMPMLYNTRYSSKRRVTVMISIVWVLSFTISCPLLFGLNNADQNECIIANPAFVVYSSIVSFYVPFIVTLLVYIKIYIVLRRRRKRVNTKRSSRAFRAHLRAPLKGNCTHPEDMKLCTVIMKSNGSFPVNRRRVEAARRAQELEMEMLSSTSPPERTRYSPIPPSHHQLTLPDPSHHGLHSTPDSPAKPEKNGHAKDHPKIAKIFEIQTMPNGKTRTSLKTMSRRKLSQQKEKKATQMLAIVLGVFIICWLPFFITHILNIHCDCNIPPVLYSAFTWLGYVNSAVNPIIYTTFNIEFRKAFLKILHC

In the case of `CN1CCN2c3ccccc3Cc3ccccc3[C@H]2C1` [MIANSERIN (+)], the Ki (as a rule, the dissociation constant of the complex between target and ligand, obtained from inhibition or displacement) came out at 2680 nM. That is a single-digit micromolar value.

For the origin of these results see BindingDB's records for doi:10.1073/pnas.86.24.9762 (Oregon Health Sciences University, 1989).
